“Also recorded” adds a separate entry of the source.
Columns and labels:
R575 = assay: Inhibition RIA of [3H]CsA binding to rabbit anti-cyclosporine antibodies R575; conditions: for affinity group for the rabbit antibodies: inhibition RIA, in words; for IC50: read-out: IC50 = Concentration for 50% inhibition, inhibition of [3H] dihydro CsA binding to rabbit antibody R575
Procedure: Serum antibodies were detected by a modification of the published radioimmunoassay (5, 12). […] Binding by diluted preimmune serum was used as a control. Free and bound ligand were separated with charcoal supplied by Sandoz according to their procedure. […] The cyclosporin derivatives were dissolved in 100% ethanol at a concentration of 5.0 mg/ml, stored at -20° C., and diluted to final concentrations of 0.27 nM to 2.7 μM in Sandoz buffer B for the inhibition experiments.

G7 1.1 = assay: ELISA inhibition by singly modified Cs-derivatives, McAb G7 1.1; assay type: binding, BALB/c mice; conditions: group I; McAb binds selectively to Thr^2 -Cs-BSA coating
Procedure: (§1) A second ELISA Procedure used conjugates of D-Lys^8 -Cs-BSA and Thr^2 -Cs-BSA for coating (Queeniaux et al., 1987b). An indirect detection system consisting of rabbit anti-mouse Ig followed by alkaline phosphates-conjugated goat anti-rabbit IgG was performed as previously described (Queenlaux et al., 1987b).
(§2) The binding of the 22 McAbs to these two Cs-BSA conjugates was also found to correlate well with their fine specificity patterns, as characterized with a set of 28-36 Cs derivatives. Typical ELISA curves showing McAb binding either to D-Lys^8 -Cs-BSA (panel A) or to Thr^2 -Ca-BSA (panel B) and inhibited by Cs or Cs derivatives are shown in FIGS. 8A-8B, D-Lys^8 -Cs-BSA was subsequently used for coating in the inhibition experiments, except for those McAbs binding selectively to Thr^2 -Cs-BSA (see Table 4 and FIGS. 7A-7C). An example of the binding of 26 Cs derivatives by McAbs belonging to each of the five specificity groups mentioned above is reported in Table 5. The results are expressed as the difference of IC50 (in log10) between the Cs derivatives and Cs. All Cs-derivatives used in this study were selected for having a conserved peptide ring conformation compared with CsA (as determined in NMR or X-ray diffraction).

H4 1.3 = assay: ELISA inhibition by singly modified Cs-derivatives, McAb H4 1.3; assay type: binding, BALB/c mice; conditions: group II; D-Lys^8 -Cs-BSA coating
Procedure: as §1, §2

H6 1.5 = assay: ELISA inhibition by singly modified Cs-derivatives, McAb H6 1.5; assay type: binding, BALB/c mice; conditions: group III; D-Lys^8 -Cs-BSA coating
Procedure: as §1, §2

B11 1.4 = assay: ELISA inhibition by singly modified Cs-derivatives, McAb B11 1.4; assay type: binding, BALB/c mice; conditions: group IV; D-Lys^8 -Cs-BSA coating
Procedure: as §1, §2

C4 2.2 = assay: ELISA inhibition by singly modified Cs-derivatives, McAb C4 2.2; assay type: binding, BALB/c mice; conditions: group V; McAb binds selectively to Thr^2 -Cs-BSA coating
Procedure: as §1, §2

SMILES	affinity group for the rabbit antibodies (R575)	IC50 (R575) [nM]	inhibition of [^3 H] CsA binding obtainable (R575; maximal inhibition)	log10 difference in the concentrations of Cs-derivatives and unmodified Cs required to achieve 50% inhibition in ELISA, McAb G7 1.1 (G7 1.1) [log10]	log10 difference in the concentrations of Cs-derivatives and unmodified Cs required to achieve 50% inhibition in ELISA, McAb H4 1.3 (H4 1.3) [log10]	log10 difference in the concentrations of Cs-derivatives and unmodified Cs required to achieve 50% inhibition in ELISA, McAb H6 1.5 (H6 1.5) [log10]	log10 difference in the concentrations of Cs-derivatives and unmodified Cs required to achieve 50% inhibition in ELISA, McAb B11 1.4 (B11 1.4) [log10]	log10 difference in the concentrations of Cs-derivatives and unmodified Cs required to achieve 50% inhibition in ELISA, McAb C4 2.2 (C4 2.2) [log10]
C/C=C/C[C@@H](C)[C@@H](O)[C@H]1C(=O)N[C@@H]([C@@H](C)OC(C)=O)C(=O)N(C)CC(=O)N(C)[C@@H](CC(C)C)C(=O)N[C@@H](C(C)C)C(=O)N(C)[C@@H](CC(C)C)C(=O)N[C@@H](C)C(=O)N[C@H](C)C(=O)N(C)[C@@H](CC(C)C)C(=O)N(C)[C@@H](CC(C)C)C(=O)N(C)[C@@H](C(C)C)C(=O)N1C [compound 665]	high affinity; also recorded: bind best	4.8						
C/C=C/C[C@@H](C)[C@@H](O)[C@H]1C(=O)N[C@@H](CC)C(=O)N(C)CC(=O)N(C)[C@@H](CC(C)C)C(=O)N[C@@H](C(C)C)C(=O)N(C)[C@@H](CC(C)C)C(=O)N[C@@H](C)C(=O)N[C@H](COC(C)(C)C)C(=O)N(C)[C@@H](CC(C)C)C(=O)N(C)[C@@H](CC(C)C)C(=O)N(C)[C@@H](C(C)C)C(=O)N1C [compound 717]	inhibits very poorly; also recorded: low affinity	2700	more than 50%					
C/C=C/C[C@@H](C)[C@@H](O)[C@H]1C(=O)N[C@@H](CC)C(=O)N(C)CC(=O)N(C)[C@@H](CC(C)C)C(=O)N[C@@H](C(C)C)C(=O)N(C)[C@@H](CC(C)C)C(=O)N[C@@H](C)C(=O)N[C@H](C)C(=O)N(C)[C@@H](Cc2ccccc2)C(=O)N(C)[C@@H](CC(C)C)C(=O)N(C)[C@@H](C(C)C)C(=O)N1C [MeLeu^9 MePhe]				0.3	0.0	0.1	1.2	1.8
C/C=C/C[C@@H](C)[C@@H](O)[C@H]1C(=O)N[C@@H](CC)C(=O)N(C)CC(=O)N(C)[C@@H](CC(C)C)C(=O)N[C@@H](C(C)C)C(=O)N(C)[C@@H](C)C(=O)N[C@@H](C)C(=O)N[C@H](C)C(=O)N(C)[C@@H](CC(C)C)C(=O)N(C)[C@@H](CC(C)C)C(=O)N(C)[C@@H](C(C)C)C(=O)N1C [MeLeu^6 McAla]				0.7	0.9	2.7	0.0	1.2
C/C=C/C[C@@H](C)[C@@H](O)[C@H]1C(=O)N[C@@H](CC)C(=O)N(C)CC(=O)N(C)[C@@H](CC(C)C)C(=O)N[C@@H](C(C)C)C(=O)N(C)[C@@H](CC(C)C)C(=O)N[C@@H](C)C(=O)N[C@H](C)C(=O)N(C)[C@@H](CC(C)C)C(=O)N(C)[C@@H](C)C(=O)N(C)[C@@H](C(C)C)C(=O)N1C [MeAla^10 MeAla]				< 0.0	0.4	0.0	0.1	0.8
CC[C@@H]1NC(=O)[C@H]([C@H](O)[C@H](C)C/C=C/CO)N(C)C(=O)[C@H](C(C)C)N(C)C(=O)[C@H](CC(C)C)N(C)C(=O)[C@H](CC(C)C)N(C)C(=O)[C@@H](C)NC(=O)[C@H](C)NC(=O)[C@H](CC(C)C)N(C)C(=O)[C@H](C(C)C)NC(=O)[C@H](CC(C)C)N(C)C(=O)CN(C)C1=O [MeBint^1 8'-hydroxy]				0.0	< 0.0	< 0.0	< 0.0	0.0
C/C=C/C[C@@H](C)[C@@H](O)[C@H]1C(=O)N[C@@H](CC)C(=O)N(C)CC(=O)N(C)[C@@H](CC(C)C)C(=O)N[C@@H](C(C)C)C(=O)N(C)[C@@H](CC(C)C)C(=O)N[C@@H](C)C(=O)N[C@H](C)C(=O)N(C)[C@@H](CC(C)C)C(=O)N(C)[C@@H](CC(C)C)C(=O)N(C)[C@@H]([C@H](C)CC)C(=O)N1C [MeVal^11 aMeIle]				0.0	0.3	0.3	< 0.0	0.0
C/C=C/C[C@@H](C)[C@@H](O)[C@H]1C(=O)N[C@@H](CC)C(=O)N(C)CC(=O)N(C)[C@@H](CC(C)C)C(=O)N[C@@H](CCSC)C(=O)N(C)[C@@H](CC(C)C)C(=O)N[C@@H](C)C(=O)N[C@H](C)C(=O)N(C)[C@@H](CC(C)C)C(=O)N(C)[C@@H](CC(C)C)C(=O)N(C)[C@@H](C(C)C)C(=O)N1C [Val^5 Met]				< 0.0	1.5	< 0.0	0.0	< 0.0
C/C=C/C[C@@H](C)[C@@H](O)[C@H]1C(=O)N[C@@H](CC)C(=O)N(C)CC(=O)N(C)[C@@H](CC(C)C)C(=O)N[C@@H](C(C)C)C(=O)N(C)[C@@H](CC(C)C)C(=O)N[C@@H](C)C(=O)N[C@H](C)C(=O)N(C)[C@@H](C)C(=O)N(C)[C@@H](CC(C)C)C(=O)N(C)[C@@H](C(C)C)C(=O)N1C [MeLeu^9 MeAla]				1.4	< 0.0	0.0	1.7	1.9

— US6177253A, “Screening methods for the identification of anti-HIV compounds employing a cyclosporine-specific monoclonal antibody that cross-reacts with HIV-1 p24” (priority 1998, dated 2001)
